Data: patent publication US12543734B2, “Herbicidal compositions comprising dimethenamid” (BASF SE, priority 2024, dated 2026)

Legend:
Format in all cases: in vivo
[1] = test system: Digitaria sanguinalis (DIGSA); assay: Example 1 post-emergence field trial (1% MSO); conditions: height 2-13 cm, 20-21 DAT, A-1 20 g ai/ha, B-2 735 g ai/ha
Experimental: (§1) In the examples below, using the method of S. R. Colby (1967) “Calculating synergistic and antagonistic responses of herbicide combinations”, Weeds 15, p. 22ff., the value E, which is expected if the activity of the individual active compounds is only additive, was calculated:
(§2) [formula] • where • X=percent activity using active herbicide A at an application rate a; • Y=percent activity using active herbicide B (e.g. DMTA-p) at an application rate b; • E=expected activity (in %) by A+B at application rates a+b.
(§3) If the value found experimentally is higher than the value E calculated according to Colby, a synergistic effect is present.
(§4) On field test sites, natural weed infestation or seeded weeds were treated post-emergence of the weeds.
(§5) In the field trials, the weeds were treated as indicated below.
(§6) In the following experiments, the herbicidal activity for the individual herbicidal compositions (solo and mixture applications) was assessed at the indicated days after treatment (DAT). The assessments for the damage on undesired weeds caused by the composition was carried out using a scale from 0 to 100%, compared to the untreated control plants. Here, 0 means no damage and 100 means complete destruction of the plants.
(§7) Post-Emergence Application of Herbicide A-1 (A-1) and Dimethenamid-P (DMTA-p; B-2) in Field Trials
(§8) Herbicide A-1 (100 g/l) and DMTA-p (720 g/l) were, together with addition of 1% MSO (methylated sed oil) as adjuvant, formulated in water as distribution medium (water volume 200 l/ha) and sprayed with commercial flat fan nozzles.

[2] = test system: Echinochloa crus-galli (ECHCG); assay: Example 1 post-emergence field trial (1% MSO); conditions: height 10-15 cm, 20-21 DAT, B-2 735 g ai/ha
Experimental: as §1, §2, §3, §4, §5, §6, §7, §8

Setaria viridis (SETVI) = assay: Example 1 post-emergence field trial (1% MSO); conditions: height 7-13 cm, 20-21 DAT, A-1 20 g ai/ha, B-2 735 g ai/ha
Experimental: as §1, §2, §3, §4, §5, §6, §7, §8

Helanthus annuus (HELAN) [3] = assay: Example 1 post-emergence field trial (1% MSO); conditions: height 20-25 cm, 20-21 DAT, A-1 20 g ai/ha, B-2 735 g ai/ha
Experimental: as §1, §2, §3, §4, §5, §6, §7, §8

[4] = test system: Amaranthus palmeri (AMAPA); assay: Example 1 post-emergence field trial (1% MSO); conditions: 20-21 DAT, B-2 735 g ai/ha
Experimental: as §1, §2, §3, §4, §5, §6, §7, §8

Sorghum bicolor (SORVU) [5] = assay: Example 1 post-emergence field trial (1% MSO); conditions: height 25-30 cm, 20-21 DAT, A-1 30 g ai/ha, B-2 735 g ai/ha
Experimental: as §1, §2, §3, §4, §5, §6, §7, §8

[6] = test system: Amaranthus tamariscinus (AMATA); assay: Example 1 post-emergence field trial (1% MSO); conditions: height 20-25 cm, 20-21 DAT, A-1 20 g ai/ha, B-2 735 g ai/ha
Experimental: as §1, §2, §3, §4, §5, §6, §7, §8

Setaria faberi (SETFA) = assay: Example 1 post-emergence field trial (1% MSO); conditions: height 7-13 cm, 20-21 DAT, A-1 20 g ai/ha, B-2 735 g ai/ha
Experimental: as §1, §2, §3, §4, §5, §6, §7, §8

[7] = test system: Digitaria sanguinalis (DIGSA); assay: Example 2 post-emergence field trial (1% MSO and AMS); conditions: height 2-8 cm, 18-21 DAT, A-1 25 g ai/ha, B-2 735 g ai/ha
Experimental: as §1, §2, §3, §4, §5, §6, §7
(§9) Herbicide A-1 (100 g/l) and DMTA-p (720 g/l) were, together with addition of 1% MSO (methylated sed oil) and AMS (ammonium sulfate) as adjuvant, formulated in water as distribution medium (water volume 200 l/ha) and sprayed with commercial flat fan nozzles.

[8] = test system: Echinochloa crus-galli (ECHCG); assay: as above; conditions: height 7-15 cm, 18-21 DAT, B-2 735 g ai/ha
Experimental: as §1, §2, §3, §4, §5, §6, §7, §9

[9] = test system: Chenopodium album (CHEAL); assay: as above; conditions: height 17-23 cm, 21-24 DAT, A-1 12.5 g ai/ha, B-2 735 g ai/ha
Experimental: as §1, §2, §3, §4, §5, §6, §7, §9

[10] = test system: Abutilon theophrasti (ABUTH); assay: as above; conditions: height 10-20 cm, 21-24 DAT, A-1 12.5 g ai/ha, B-2 735 g ai/ha
Experimental: as §1, §2, §3, §4, §5, §6, §7, §9

[11] = test system: Amaranthus palmeri (AMAPA); assay: as above; conditions: B-2 735 g ai/ha
Experimental: as §1, §2, §3, §4, §5, §6, §7, §9

[12] = test system: Amaranthus retroflexus (AMARE); assay: as above; conditions: B-2 735 g ai/ha
Experimental: as §1, §2, §3, §4, §5, §6, §7, §9

Eleusine indica (ELEIN) [13] = assay: as above; conditions: B-2 735 g ai/ha
Experimental: as §1, §2, §3, §4, §5, §6, §7, §9

[14] = test system: Portulaca oleracea (POROL); assay: as above; conditions: B-2 735 g ai/ha
Experimental: as §1, §2, §3, §4, §5, §6, §7, §9

[15] = test system: Amaranthus tamariscinus (AMATA); assay: as above; conditions: B-2 735 g ai/ha
Experimental: as §1, §2, §3, §4, §5, §6, §7, §9

Glycine max (GLXMA) [16] = assay: Example 3 post-emergence field trial, volunteer crop plants (1% MSO); conditions: height 6-15 cm, 20 DAT, A-1 30 g ai/ha, B-2 735 g ai/ha
Experimental: as §1, §2, §3, §4, §5, §6, §7, §8

Zea mays (ZEAMX) [17] = assay: as above; conditions: height 43-51 cm, 20 DAT, B-2 735 g ai/ha
Experimental: as §1, §2, §3, §4, §5, §6, §7, §8

Glycine max (GLXMA) [18] = assay: Example 4 post-emergence field trial (1% MSO and AMS); conditions: 21-24 DAT, A-1 12.5 g ai/ha, B-2 735 g ai/ha
Experimental: as §1, §2, §3, §4, §5, §6, §7, §9

Helanthus annuus (HELAN) [19] = assay: as above; conditions: height 10-20 cm, 20 DAT, A-1 12.5 g ai/ha, B-2 735 g ai/ha
Experimental: as §1, §2, §3, §4, §5, §6, §7, §9

Eleusine indica (ELEIN) [20] = assay: as above; conditions: height 15-20 cm, 21-24 DAT, A-1 12.5 g ai/ha, B-2 735 g ai/ha
Experimental: as §1, §2, §3, §4, §5, §6, §7, §9

Sorghum bicolor (SORVU) [21] = assay: as above; conditions: height 15-20 cm, 20 DAT, A-1 12.5 g ai/ha, B-2 735 g ai/ha
Experimental: as §1, §2, §3, §4, §5, §6, §7, §9

Zea mays (ZEAMX) [22] = assay: as above; conditions: 21-24 DAT, B-2 735 g ai/ha
Experimental: as §1, §2, §3, §4, §5, §6, §7, §9

[23] = height 10-18 cm, A-1 20 g ai/ha
[24] = height 10-18 cm, A-1 30 g ai/ha
[25] = height 7-15 cm, 18-21 DAT, A-1 12.5 g ai/ha
[26] = height 7-15 cm, 18-21 DAT, A-1 25 g ai/ha
[27] = height 20-25 cm, 21-24 DAT, A-1 12.5 g ai/ha
[28] = height 10-20 cm, 21-24 DAT, A-1 25 g ai/ha
[29] = height 17-28 cm, 21-24 DAT, A-1 12.5 g ai/ha
[30] = height 7-10 cm, 18-21 DAT, A-1 12.5 g ai/ha
[31] = height 7-10 cm, 18-21 DAT, A-1 25 g ai/ha
[32] = height 15-20 cm, 21-24 DAT, A-1 25 g ai/ha
[33] = height 2-13 cm, 18-21 DAT, A-1 25 g ai/ha
[34] = height 10-20 cm, 21-24 DAT, A-1 12.5 g ai/ha
[35] = height 5-13 cm, 18-21 DAT, A-1 12.5 g ai/ha

CCOC(=O)COc1ccccc1Oc1nc(-n2c(=O)cc(C(F)(F)F)n(C)c2=O)c(F)cc1Cl [A-1, ethyl 2-[2-[[3-chloro-5-fluoro-6-[3-methyl-2,6-dioxo-4-(trifluoromethyl)pyrimidin-1-yl]-2-pyridyl]oxy]phenoxy]acetate]
% herbicidal activity [1]: 97% | % herbicidal activity ([2]; A-1 20 g ai/ha): 77% | % herbicidal activity ([2]; A-1 30 g ai/ha): 80% | % herbicidal activity (Setaria viridis (SETVI)): 97% | % herbicidal activity (Helanthus annuus (HELAN) [3]): 99% | % herbicidal activity ([4]; height 2-12 cm, A-1 20 g ai/ha): 99% | % herbicidal activity ([4]; height 2-12 cm, A-1 30 g ai/ha): 99% | % herbicidal activity [4, 23]: 77% | % herbicidal activity [4, 24]: 80% | % herbicidal activity (Sorghum bicolor (SORVU) [5]): 93% | % herbicidal activity [6]: 70% | % herbicidal activity (Setaria faberi (SETFA)): 97% | % herbicidal activity [7]: 97% | % herbicidal activity ([8]; A-1 12.5 g ai/ha): 82% | % herbicidal activity ([8]; A-1 25 g ai/ha): 85% | % herbicidal activity [9]: 77% | % herbicidal activity [10]: 98% | % herbicidal activity [11, 25]: 42% | % herbicidal activity [11, 26]: 64% | % herbicidal activity [11, 27]: 74% | % herbicidal activity [12, 26]: 85% | % herbicidal activity [12, 28]: 82% | % herbicidal activity [12, 29]: 67% | % herbicidal activity (Eleusine indica (ELEIN) [13]; [30]): 18% | % herbicidal activity (Eleusine indica (ELEIN) [13]; [31]): 78% | % herbicidal activity (Eleusine indica (ELEIN) [13]; [32]): 55% | % herbicidal activity [14, 33]: 93% | % herbicidal activity [14, 34]: 80% | % herbicidal activity [14, 28]: 87% | % herbicidal activity [15, 35]: 90% | % herbicidal activity [15, 26]: 85% | % herbicidal activity [15, 28]: 77% | % herbicidal activity [15, 29]: 67% | % herbicidal activity (Glycine max (GLXMA) [16]): 98% | % herbicidal activity (Zea mays (ZEAMX) [17]; A-1 20 g ai/ha): 72% | % herbicidal activity (Zea mays (ZEAMX) [17]; A-1 30 g ai/ha): 88% | % herbicidal activity (Glycine max (GLXMA) [18]): 90% | % herbicidal activity (Helanthus annuus (HELAN) [19]): 93% | % herbicidal activity (Eleusine indica (ELEIN) [20]): 27% | % herbicidal activity (Sorghum bicolor (SORVU) [21]): 87% | % herbicidal activity (Zea mays (ZEAMX) [22]; A-1 12.5 g ai/ha): 67% | % herbicidal activity (Zea mays (ZEAMX) [22]; A-1 25 g ai/ha): 83%

COC[C@H](C)N(C(=O)CCl)c1c(C)csc1C [B-2, dimethenamid-P]
% herbicidal activity [1]: 0% | % herbicidal activity ([2]; A-1 20 g ai/ha): 0% | % herbicidal activity ([2]; A-1 30 g ai/ha): 0% | % herbicidal activity (Setaria viridis (SETVI)): 0% | % herbicidal activity (Helanthus annuus (HELAN) [3]): 0% | % herbicidal activity ([4]; height 2-12 cm, A-1 20 g ai/ha): 37% | % herbicidal activity ([4]; height 2-12 cm, A-1 30 g ai/ha): 37% | % herbicidal activity [4, 23]: 0% | % herbicidal activity [4, 24]: 0% | % herbicidal activity (Sorghum bicolor (SORVU) [5]): 0% | % herbicidal activity [6]: 0% | % herbicidal activity (Setaria faberi (SETFA)): 0% | % herbicidal activity [7]: 5% | % herbicidal activity ([8]; A-1 12.5 g ai/ha): 0% | % herbicidal activity ([8]; A-1 25 g ai/ha): 0% | % herbicidal activity [9]: 0% | % herbicidal activity [10]: 35% | % herbicidal activity [11, 25]: 0% | % herbicidal activity [11, 26]: 0% | % herbicidal activity [11, 27]: 0% | % herbicidal activity [12, 26]: 0% | % herbicidal activity [12, 28]: 47% | % herbicidal activity [12, 29]: 0% | % herbicidal activity (Eleusine indica (ELEIN) [13]; [30]): 0% | % herbicidal activity (Eleusine indica (ELEIN) [13]; [31]): 0% | % herbicidal activity (Eleusine indica (ELEIN) [13]; [32]): 0% | % herbicidal activity [14, 33]: 7% | % herbicidal activity [14, 34]: 28% | % herbicidal activity [14, 28]: 28% | % herbicidal activity [15, 35]: 15% | % herbicidal activity [15, 26]: 0% | % herbicidal activity [15, 28]: 47% | % herbicidal activity [15, 29]: 0% | % herbicidal activity (Glycine max (GLXMA) [16]): 0% | % herbicidal activity (Zea mays (ZEAMX) [17]; A-1 20 g ai/ha): 0% | % herbicidal activity (Zea mays (ZEAMX) [17]; A-1 30 g ai/ha): 0% | % herbicidal activity (Glycine max (GLXMA) [18]): 0% | % herbicidal activity (Helanthus annuus (HELAN) [19]): 0% | % herbicidal activity (Eleusine indica (ELEIN) [20]): 0% | % herbicidal activity (Sorghum bicolor (SORVU) [21]): 0% | % herbicidal activity (Zea mays (ZEAMX) [22]; A-1 12.5 g ai/ha): 0% | % herbicidal activity (Zea mays (ZEAMX) [22]; A-1 25 g ai/ha): 0%
